Measurements published in PubChem BioAssay (NCI).
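Five concentrations, 48 hours, 96-well plates. The concentration for 50% growth inhibition is given as GI50. TGI: concentration producing complete growth inhibition.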

Columns and labels:
Assay in all cases: NCI-60 cell line screen, 48 h
SK-MEL-2 melanoma = system: SK-MEL-2 melanoma
NCI-H460 lung = system: NCI-H460 lung
CCRF-CEM leukemia = system: CCRF-CEM leukemia
NCI-H522 lung = system: NCI-H522 lung
SF-539 CNS = system: SF-539 CNS
HCT-15 colon = system: HCT-15 colon
786-0 renal = system: 786-0 renal
MDA-MB-231 breast = system: MDA-MB-231 breast
SF-295 CNS = system: SF-295 CNS
LOX IMVI melanoma = system: LOX IMVI melanoma
BT-549 breast = system: BT-549 breast
RPMI-8226 leukemia = system: RPMI-8226 leukemia
T-47D breast = system: T-47D breast
DU-145 prostate = system: DU-145 prostate
EKVX NSCLC = system: EKVX NSCLC
OVCAR-4 ovarian = system: OVCAR-4 ovarian
K-562 leukemia = system: K-562 leukemia
SK-OV-3 ovarian = system: SK-OV-3 ovarian
OVCAR-8 ovarian = system: OVCAR-8 ovarian
IGROV1 ovarian = system: IGROV1 ovarian
OVCAR-3 ovarian = system: OVCAR-3 ovarian
UO-31 renal = system: UO-31 renal
KM12 colon = system: KM12 colon
CAKI-1 renal = system: CAKI-1 renal
SW-620 colon = system: SW-620 colon

**Q.** For `CC1=C(C(=O)Nc2ccc(Cl)c(Cl)c2)C(c2cccc(Oc3ccccc3)c2)NC(=O)N1` (stereo not given), which GI50 (SK-MEL-2 melanoma) is on record?
**A.** The GI50 was 5.68 µM.

**Q.** And the TGI (SK-MEL-2 melanoma)?
**A.** Its TGI is 17.9 µM.

**Q.** And the GI50 (NCI-H460 lung)?
**A.** Its GI50 is 4.94 µM.

**Q.** What about the TGI (NCI-H460 lung) of the same molecule?
**A.** Its TGI is 32.8 µM.

**Q.** And the GI50 (CCRF-CEM leukemia)?
**A.** Its GI50 is over 50 µM.

**Q.** And the TGI (CCRF-CEM leukemia)?
**A.** Its TGI is over 50 µM.

**Q.** And the GI50 (NCI-H522 lung)?
**A.** Its GI50 is 4.47 µM.

**Q.** And the TGI (NCI-H522 lung)?
**A.** The TGI was 26 µM.

**Q.** And the GI50 (SF-539 CNS)?
**A.** The GI50 was 6.78 µM.

**Q.** What about the TGI (SF-539 CNS) of the same molecule?
**A.** The TGI was 17 µM.

**Q.** What about the GI50 (HCT-15 colon) of the same molecule?
**A.** The GI50 was 6.61 µM.

**Q.** And the TGI (HCT-15 colon)?
**A.** The TGI was 48.2 µM.

**Q.** And the GI50 (786-0 renal)?
**A.** Its GI50 is 10.2 µM.

**Q.** And the TGI (786-0 renal)?
**A.** Its TGI is 20.8 µM.

**Q.** What about the GI50 (MDA-MB-231 breast) of the same molecule?
**A.** The GI50 was 6.15 µM.

**Q.** And the TGI (MDA-MB-231 breast)?
**A.** Its TGI is 16.3 µM.

**Q.** And the GI50 (SF-295 CNS)?
**A.** Its GI50 is 5.57 µM.

**Q.** What about the TGI (SF-295 CNS) of the same molecule?
**A.** The TGI was 16.6 µM.

**Q.** What about the GI50 (LOX IMVI melanoma) of the same molecule?
**A.** The GI50 was 4.33 µM.

**Q.** What about the TGI (LOX IMVI melanoma) of the same molecule?
**A.** The TGI was 13.8 µM.

**Q.** And the GI50 (BT-549 breast)?
**A.** Its GI50 is 4.23 µM.

**Q.** What about the TGI (BT-549 breast) of the same molecule?
**A.** The TGI was 14.3 µM.

**Q.** What about the GI50 (RPMI-8226 leukemia) of the same molecule?
**A.** The GI50 was 13.4 µM.

**Q.** What about the TGI (RPMI-8226 leukemia) of the same molecule?
**A.** Its TGI is over 50 µM.

**Q.** What about the GI50 (T-47D breast) of the same molecule?
**A.** The GI50 was 22.9 µM.

**Q.** What about the TGI (T-47D breast) of the same molecule?
**A.** The TGI was over 50 µM.

**Q.** What about the GI50 (DU-145 prostate) of the same molecule?
**A.** Its GI50 is 6.5 µM.

**Q.** And the TGI (DU-145 prostate)?
**A.** Its TGI is 33.3 µM.

**Q.** And the GI50 (EKVX NSCLC)?
**A.** Its GI50 is 5.21 µM.

**Q.** What about the TGI (EKVX NSCLC) of the same molecule?
**A.** The TGI was 16.3 µM.

**Q.** What about the GI50 (OVCAR-4 ovarian) of the same molecule?
**A.** The GI50 was 11.2 µM.

**Q.** What about the TGI (OVCAR-4 ovarian) of the same molecule?
**A.** The TGI was over 50 µM.

**Q.** And the GI50 (K-562 leukemia)?
**A.** Its GI50 is 18.6 µM.

**Q.** What about the TGI (K-562 leukemia) of the same molecule?
**A.** The TGI was over 50 µM.

**Q.** And the GI50 (SK-OV-3 ovarian)?
**A.** The GI50 was 25.5 µM.

**Q.** What about the TGI (SK-OV-3 ovarian) of the same molecule?
**A.** Its TGI is over 50 µM.

**Q.** What about the GI50 (OVCAR-8 ovarian) of the same molecule?
**A.** The GI50 was 7.67 µM.

**Q.** What about the TGI (OVCAR-8 ovarian) of the same molecule?
**A.** Its TGI is 22 µM.

**Q.** What about the GI50 (IGROV1 ovarian) of the same molecule?
**A.** Its GI50 is 5.6 µM.

**Q.** What about the TGI (IGROV1 ovarian) of the same molecule?
**A.** The TGI was 32.6 µM.

**Q.** And the GI50 (OVCAR-3 ovarian)?
**A.** Its GI50 is 7.75 µM.

**Q.** And the TGI (OVCAR-3 ovarian)?
**A.** Its TGI is 17 µM.

**Q.** And the GI50 (UO-31 renal)?
**A.** Its GI50 is 4.74 µM.

**Q.** What about the TGI (UO-31 renal) of the same molecule?
**A.** The TGI was over 50 µM.

**Q.** What about the GI50 (KM12 colon) of the same molecule?
**A.** Its GI50 is 8.72 µM.

**Q.** What about the TGI (KM12 colon) of the same molecule?
**A.** Its TGI is 19.7 µM.

**Q.** What about the GI50 (CAKI-1 renal) of the same molecule?
**A.** The GI50 was 7.64 µM.

**Q.** And the TGI (CAKI-1 renal)?
**A.** Its TGI is 20.4 µM.

**Q.** What about the GI50 (SW-620 colon) of the same molecule?
**A.** The GI50 was 12.8 µM.

**Q.** And the TGI (SW-620 colon)?
**A.** The TGI was 43.8 µM.
